Test results as given in the NIST ThermoML archive (doi:10.1016/j.jct.2014.07.006).
Values joined by “and” are separate entries in the source; they are usually repeats but may differ in a detail not shown here. Identical values can stand only once. Numbers after ± are expanded uncertainties.

What was measured:
[1] = for vapor or sublimation pressure: Liquid, Rate of evaporation; for Normal melting temperature: Crystal, DTA
[2] = Molar enthalpy of transition or fusion; conditions: Crystal; DSC
[3] = molar heat capacity at constant pressure; conditions: 298.15 K; 101.33 kPa; Crystal; Small sample (50 mg) DSC

NC(=O)c1cccc([N+](=O)[O-])c1 [3-nitrobenzamide]
[1]
Conditions | vapor or sublimation pressure [kPa]
485 K | 0.7222 ± 0.096
485.02 K | 0.7094 ± 0.099
485.06 K | 0.6868 ± 0.1
490.01 K | 0.8798 ± 0.12
490.02 K | 0.868 ± 0.12
490.06 K | 0.84 ± 0.11
495.01 K | 1.068 ± 0.14
495.02 K | 1.057 ± 0.14
495.05 K | 1.021 ± 0.14
500 K | 1.286 ± 0.16
500.01 K | 1.284 ± 0.16
500.04 K | 1.246 ± 0.16
505.03 K | 1.495 ± 0.19
505.07 K | 1.556 ± 0.19
505.08 K | 1.557 ± 0.19
510 K | 1.794 ± 0.22
510.04 K | 1.867 ± 0.23
510.06 K | 1.872 ± 0.23
515.02 K | 2.228 ± 0.26
515.03 K | 2.226 ± 0.26
515.06 K | 2.146 ± 0.25
520.02 K | 2.545 ± 0.32
520.06 K | 2.654 ± 0.33
520.07 K | 2.633 ± 0.33
525.02 K | 3.119 ± 0.36
525.03 K | 3.091 ± 0.36
525.06 K | 3.009 ± 0.35
530 K | 3.525 ± 0.42
530.04 K | 3.638 ± 0.43
530.06 K | 3.596 ± 0.43
535.01 K | 4.145 ± 0.47
535.03 K | 4.119 ± 0.46
535.06 K | 4.215 ± 0.49

Conditions | Molar enthalpy of transition or fusion [kcal/mol] | Normal melting temperature [°C] | molar heat capacity at constant pressure [J/K/mol]
[1] | – | 141.51 ± 0.42 | –
[2] | 5.87 ± 0.134 | – | –
[3] | – | – | 237.57 ± 10

NC(=O)c1ccc([N+](=O)[O-])cc1 [p-nitrobenzamide]
[1]
Conditions | vapor or sublimation pressure
485.02 K | 0.6396 ± 0.1 kPa and 0.6809 ± 0.094 kPa
485.04 K | 0.5788 ± 0.12 kPa
485.1 K | 0.6701 ± 0.097 kPa
490.01 K | 0.8437 ± 0.11 kPa
490.03 K | 0.8038 ± 0.11 kPa
490.07 K | 0.7398 ± 0.1 kPa
490.08 K | 0.7145 ± 0.1 kPa
495.01 K | 1.021 ± 0.12 kPa and 0.9548 ± 0.12 kPa
495.05 K | 0.9568 ± 0.12 kPa
495.06 K | 0.871 ± 0.11 kPa
500.01 K | 1.06 ± 0.13 kPa
500.03 K | 1.229 ± 0.15 kPa
500.04 K | 1.142 ± 0.14 kPa
500.06 K | 1.154 ± 0.14 kPa
505 K | 1.286 ± 0.17 kPa
505.03 K | 1.474 ± 0.18 kPa
505.05 K | 1.352 ± 0.17 kPa
505.06 K | 1.416 ± 0.18 kPa
510 K | 1.671 ± 0.22 kPa
510.02 K | 1.683 ± 0.22 kPa
510.04 K | 1.565 ± 0.21 kPa
510.06 K | 1.777 ± 0.23 kPa
515.01 K | 2.113 ± 0.25 kPa and 2.01 ± 0.24 kPa
515.04 K | 2.03 ± 0.24 kPa
515.06 K | 1.895 ± 0.23 kPa
520.02 K | 2.452 ± 0.33 kPa
520.04 K | 2.289 ± 0.32 kPa
520.06 K | 2.527 ± 0.34 kPa
520.08 K | 2.386 ± 0.33 kPa
525.02 K | 3.001 ± 0.35 kPa
525.03 K | 2.837 ± 0.34 kPa
525.05 K | 2.926 ± 0.35 kPa
525.08 K | 2.758 ± 0.33 kPa
530.01 K | 3.298 ± 0.41 kPa
530.03 K | 3.568 ± 0.43 kPa
530.05 K | 3.382 ± 0.41 kPa
530.06 K | 3.455 ± 0.42 kPa
535.02 K | 3.943 ± 0.44 kPa
535.04 K | 4.206 ± 0.52 kPa
535.06 K | 4.019 ± 0.46 kPa
535.07 K | 4.152 ± 0.5 kPa

Conditions | Molar enthalpy of transition or fusion [kcal/mol] | Normal melting temperature [°C] | molar heat capacity at constant pressure [J/K/mol]
[1] | – | 200.33 ± 0.62 | –
[2] | 7.19 ± 0.158 | – | –
[3] | – | – | 212.65 ± 8.3

c1ccc2c(c1)ccc1ccccc12 [phenanthrene]
[1]
Conditions | vapor or sublimation pressure
400 K | 0.1505 ± 0.019 kPa [middle of 4 runs]
405 K | 0.18 ± 0.023 kPa [middle of 4 runs]
410 K | 0.2218 ± 0.029 kPa [middle of 4 runs]
415 K | 0.2759 ± 0.036 kPa [middle of 4 runs]
420 K | 0.3417 ± 0.045 kPa [middle of 4 runs]
425 K | 0.427 ± 0.056 kPa [middle of 4 runs]
430 K | 0.5304 ± 0.07 kPa [middle of 4 runs]
435 K | 0.6576 ± 0.086 kPa [middle of 4 runs]
440 K | 0.8141 ± 0.11 kPa [middle of 4 runs]
445 K | 1.004 ± 0.13 kPa [middle of 4 runs]
450 K | 1.235 ± 0.16 kPa [middle of 4 runs]
455 K | 1.516 ± 0.19 kPa [middle of 4 runs]
460 K | 1.844 ± 0.23 kPa [middle of 4 runs]
465 K | 2.233 ± 0.28 kPa [middle of 4 runs]
470 K | 2.697 ± 0.33 kPa [middle of 4 runs]
475 K | 3.245 ± 0.4 kPa [middle of 4 runs]
480 K | 3.773 ± 0.45 kPa and 3.874 ± 0.48 kPa and 3.819 ± 0.47 kPa

NC(=O)c1ccccc1[N+](=O)[O-] [2-nitrobenzamide]
[1]
Conditions | vapor or sublimation pressure
485.02 K | 0.5592 ± 0.071 kPa
485.04 K | 0.5538 ± 0.072 kPa
485.08 K | 0.5802 ± 0.068 kPa
490.02 K | 0.6682 ± 0.086 kPa
490.06 K | 0.6975 ± 0.088 kPa
490.07 K | 0.6914 ± 0.088 kPa
495 K | 0.8483 ± 0.11 kPa
495.01 K | 0.8342 ± 0.11 kPa
495.05 K | 0.8126 ± 0.1 kPa
500.01 K | 1.016 ± 0.13 kPa
500.05 K | 0.9934 ± 0.13 kPa
500.08 K | 1.036 ± 0.13 kPa
505 K | 1.234 ± 0.15 kPa
505.03 K | 1.212 ± 0.15 kPa
505.05 K | 1.264 ± 0.16 kPa
510.02 K | 1.487 ± 0.19 kPa
510.04 K | 1.531 ± 0.2 kPa
510.07 K | 1.503 ± 0.19 kPa
515.02 K | 1.877 ± 0.24 kPa
515.05 K | 1.829 ± 0.23 kPa
515.08 K | 1.822 ± 0.23 kPa
520.02 K | 2.233 ± 0.28 kPa
520.05 K | 2.227 ± 0.28 kPa
520.07 K | 2.203 ± 0.28 kPa
525.01 K | 2.884 ± 0.36 kPa and 2.697 ± 0.35 kPa
525.06 K | 2.718 ± 0.35 kPa
530.02 K | 3.274 ± 0.41 kPa
530.03 K | 3.315 ± 0.41 kPa
530.07 K | 3.29 ± 0.41 kPa
535.02 K | 3.942 ± 0.47 kPa
535.03 K | 3.951 ± 0.48 kPa
535.06 K | 3.957 ± 0.48 kPa

Conditions | Molar enthalpy of transition or fusion [kcal/mol] | Normal melting temperature [°C] | molar heat capacity at constant pressure [J/K/mol]
[1] | – | 173.80 ± 0.4 | –
[2] | 6.63 ± 0.146 | – | –
[3] | – | – | 220.96 ± 10
